From patent US20060083738A1, “Treatment of cancer by the use of anti fas antibody” (FUSION ANTIBODIES LIMITED, priority 2002, published 2006)

Experiments:
Format in all cases: cell-based
Fas [1] = assay: Fas expression in response to 5FU treatment, MCF-7; settings: MCF-7 breast cancer cell line
Source text: (§1) FIG. 1 illustrates FAS/CD95 expression in response to 5-FU and tomudex (TDX).
(§2) Moreover, procaspase 8 and BID cleavage are not observed in cells treated with either 5PU or anti-Fas monoclonal antibody alone. However, both are activated following co-treatment with 5FU and anti-Fas monoclonal antibody (indicated by loss of full-length procaspase 8 and BID).

Fas [2] = assay: Fas expression in response to 5FU treatment, HCT116; settings: HCT116 colorectal cancer cell line
Source text: as §1, §2

[3] = test system: procaspase 8, BID, c-FLIP, FasL; assay: Expression and activation of apoptosis regulating proteins in drug-treated cells
Protocol: FIG. 2 illustrates expression of apoptosis regulating proteins in MCF-7 cells 72 hours after treatment with 10 μM 5-FU or 100 nM TDX.
as §2

Fas / FasL interaction = assay: Immunoprecipitation of Fas receptor and FasL; settings: 5FU treatment, FIG. 1B

O=c1[nH]cc(F)c(=O)[nH]1 [5FU, 5-Fluorouracil]
up-regulation of Fas expression (Fas [1]): > 10 fold
up-regulation of Fas expression (Fas [2]): > 10 fold
FasL expression ([3]; 5FU treatment): unaffected
activation of procaspase 8 or BID ([3]; 5FU-treated MCF-7 and HCT116 cells, FIG. 1A): does not result in activation of procaspase 8 or BID
c-FLIP expression ([3]; 5FU-treated cells or co-treated cells): up-regulated
procaspase 8 and BID cleavage ([3]; single agent or co-treatment, loss of full-length procaspase 8 and BID): not observed
interaction between receptor (Fas) and ligand (FasL) (Fas / FasL interaction): up-regulated
